Test results from ChEMBL document CHEMBL5579895, “Discovery of TYRA-300: First Oral Selective FGFR3 Inhibitor for the Treatment of Urothelial Cancers and Achondroplasia” (J Med Chem, 2024).
The source made the active and inactive calls. The rule behind the calls is not given here.

How the values were obtained:
[1] = Inhibition of recombinant BCR/FGFR1 (unknown origin) transduced in mouse BaF3 cells incubated for 48 hrs by Cell Titer Glo assay; assay type: cell-based; conditions: BaF3, 48 h
[2] = Stability in human hepatocytes assessed as half life at 1 uM incubated upto 180 mins by LC-MS/MS analysis; assay type: ADME, cell-based, Hepatocyte
[3] = Inhibition of recombinant BCR/FGFR4 (unknown origin) transduced in mouse BaF3 cells incubated for 48 hrs by Cell Titer Glo assay; assay type: cell-based; conditions: BaF3, 48 h
[4] = Inhibition of recombinant BCR/FGFR2 (unknown origin) transduced in mouse BaF3 cells incubated for 48 hrs by Cell Titer Glo assay; assay type: cell-based; conditions: BaF3, 48 h
RT112/84 [5] = assay: Antitumor activity against human RT112/84 cells harboring FGFR3/TACC3 fusion xenografted in Balb/c nude mouse model at 15 mg/kg, po bid treated for 21 days relative to control; assay type: functional; conditions: for inhibition in vivo at 15 mg/kg: RT112/84, 504 h, time 21 day, read-out: TGI
[6] = Inhibition of recombinant FGFR3/BAIAP2L1 (unknown origin) transduced in mouse BaF3 cells incubated for 48 hrs by Cell Titer Glo assay; assay type: cell-based; conditions: BaF3, 48 h
RT112/84 [7] = assay: cells; assay type: functional, cell-based; conditions: Homo sapiens
Description: Inhibition of cell viability in human RT112/84 cells harboring FGFR3 V555M mutant incubated for 72 to 120 hrs by Cell Titer Glo assay

KG-1 = assay: Inhibition of cell viability in human KG-1 cells harboring FGFR1-fusion incubated for 72 to 120 hrs by Cell Titer Glo assay; assay type: functional, cell-based
[8] = Inhibition of cell viability in human UMUC14 cells harboring FGFR3 S249C mutant incubated for 72 to 120 hrs by Cell Titer Glo assay; assay type: functional, cell-based
RT112/84 [9] = assay: cells; assay type: functional, cell-based; conditions: Homo sapiens; remark: listed apart in the source
Description: Inhibition of cell viability in human RT112/84 cells harboring FGFR3/TACC3 fusion incubated for 72 to 120 hrs by Cell Titer Glo assay

RT112/84 [10] = assay: animal or person; assay type: functional, Homo sapiens; conditions: Mus musculus, RT112/84, 504 h, route po, time 21 day, read-out: TGI
Description: Antitumor activity against human RT112/84 cells harboring FGFR3 V555M mutant xenografted in Balb/c nude mouse model at 12.5 mg/kg, po bid treated for 21 days relative to control

RT-4 = assay: Inhibition of cell viability in human RT-4 cells harboring FGFR3/TACC3 fusion incubated for 72 to 120 hrs by Cell Titer Glo assay; assay type: functional, cell-based
[11] = Inhibition of cell viability in human UMUC14 cells harboring FGFR3 V555M mutant incubated for 72 to 120 hrs by Cell Titer Glo assay; assay type: functional, cell-based
RT112/84 [12] = assay: animal or person; assay type: functional, Homo sapiens; conditions: Mus musculus, RT112/84, 504 h, route po, time 21 day, read-out: TGI; remark: listed apart in the source
Description: Antitumor activity against human RT112/84 cells harboring FGFR3/TACC3 fusion xenografted in Balb/c nude mouse model at 12.5 mg/kg, po bid treated for 21 days relative to control

DMS-114 = assay: Inhibition of cell viability in human DMS-114 cells harboring FGFR1-amplification incubated for 72 to 120 hrs by Cell Titer Glo assay; assay type: functional, cell-based
[13] = Stability in human liver microsomes assessed as half life at 1 uM incubated upto 180 mins by LC-MS/MS analysis; assay type: ADME, Microsome

Structure (SMILES) | IC50 [1] | half-life at 1 µM [2] | IC50 [3] | IC50 [4] | Activity (RT112/84 [5]; time 21.0 day) | IC50 [6] | IC50 (RT112/84 [7]) | IC50 (KG-1) | inhibition in vivo at 15 mg/kg (RT112/84 [5]) | IC50 [8] | IC50 (RT112/84 [9]) | inhibition in vivo at 12.5 mg/kg (RT112/84 [10]) | IC50 (RT-4) | IC50 [11] | inhibition in vivo at 12.5 mg/kg (RT112/84 [12]) | IC50 (DMS-114) | half-life at 1 µM [13]
C[C@@H](Oc1ccc2[nH]nc(-c3cnc(N4CC5(C4)CN(S(C)(=O)=O)C5)nc3)c2c1)c1c(Cl)cncc1Cl | 880 nM | 2.2 h | 128 nM | 487 nM | inactive | 30 nM |  |  |  |  |  |  |  |  |  |  | 
C[C@@H](Oc1ccc2[nH]nc(-c3ccc(N4CC5(CCN(S(C)(=O)=O)CC5)C4)nc3)c2c1)c1c(Cl)cncc1Cl | 212 nM | > 1.67 h | 147 nM | 127 nM |  | 14 nM | 42 nM | 1570 nM | 64% | 15 nM | 15 nM |  |  |  |  |  | 
COc1cc(OC)cc(N(CCNC(C)C)c2ccc3ncc(-c4cnn(C)c4)nc3c2)c1 [ERDAFITINIB] | 5.2 nM |  | 11 nM | 3.8 nM |  | 2.6 nM | 2150 nM | 2.1 nM |  | 3.8 nM | 3.6 nM | 12% | 4.4 nM | > 3000 nM | 73% | 11 nM | 
C[C@@H](Oc1ccc2[nH]nc(-c3ccc(N4CC5(C4)CN(S(C)(=O)=O)C5)nn3)c2c1)c1c(Cl)cncc1Cl | 204 nM | > 1.67 h | 278 nM | 224 nM |  | 8.7 nM |  | 238 nM |  | 34 nM | 27 nM |  |  |  |  |  | 
C[C@@H](Oc1ccc2[nH]nc(-c3ccc(N4CC5(C4)CN(S(C)(=O)=O)C5)nc3)c2c1)c1c(Cl)cnnc1Cl | 179 nM | 0.3 h |  | 67 nM |  | 8.6 nM | 89 nM | 193 nM |  | 1580 nM | 38 nM |  | 144 nM |  |  | 3000 nM | 
C[C@@H](Oc1ccc2[nH]nc(-c3ccc(N4CC5(CCS(=O)(=O)C5)C4)nc3)c2c1)c1c(Cl)cncc1Cl | 104 nM | 1.7 h | 106 nM | 111 nM |  | 3.2 nM | 22 nM | 83 nM | 56% | 10 nM | 9.2 nM |  |  |  |  |  | 
C[C@@H](Oc1ccc2[nH]nc(-c3ccc(N4CC5(CCS(=O)(=O)CC5)C4)nc3)c2c1)c1c(Cl)cncc1Cl | 129 nM | 1.43 h | 169 nM | 132 nM |  | 11 nM | 17 nM | 332 nM | 76% | 10 nM | 8.3 nM |  |  |  |  |  | 
C[C@@H](Oc1ccc2[nH]nc(-c3ccc(N4CCN(C(=O)N5CCN(C)CC5)CC4)nc3)c2c1)c1c(Cl)cncc1Cl | 113 nM |  | 148 nM | 114 nM |  | 6.5 nM |  |  |  |  |  |  |  |  |  |  | 3.5 min
C[C@@H](Oc1ccc2[nH]nc(-c3ccc(N4CC5(CCN(S(C)(=O)=O)C5)C4)nc3)c2c1)c1c(Cl)cncc1Cl | 401 nM | > 1.67 h | 177 nM | 222 nM |  | 16 nM | 36 nM | 205 nM | 22% | 13 nM | 13 nM |  |  |  |  |  | 
